Patent US20090081194A1, “COMPOSITIONS AND METHODS FOR REDUCING RISK OF DEVELOPMENT, OR SEVERITY, OF INAPPROPRIATE IMMUNE RESPONSE IN EYES” (priority 2007, published 2009)

Columns and labels:
[1] = test system: mouse peritoneal neutrophils; test: Cytokine production (ELISA) by activated mouse peritoneal neutrophils; format: cell-based; conditions: 15 hours
Method: In one experiment, mouse peritoneal neutrophils were isolated from C57BL/6 mice that had received intraperitoneal injection of 1% casein solution containing 0.5 mM MgCl2 and 0.99 mM CaCl2 16 hours and 3 hours prior to harvesting in Hank's balanced salt solution (“HBSS”) lavage. Collected cells were centrifuged (2000 rpm, 10 min) and washed twice in HBSS, prior to separation of granulocytes by Percol gradient at 31,500 rpm for 20 min. Cells were washed twice and resuspended in Dubelco's modified eagle's medium (“DMEM”) containing 10% fetal calf serum (Invitrogen, Basel Switzerland). Purity of 98% neutrophils was verified by Diff-Quik stain (VWR, Bridgeport, N.J.). Neutrophils (1×10^5/well) were pre-incubated with 100 ng/ml GM-CSF at 37° C. for 1 hour prior to exposure to compositions of the present invention comprising 0.08-10 μg/ml of inhibitory ODN 2088 (InvivoGen, San Diego, Calif.; sequence disclosed above) or a control composition containing 20 μg/ml of the control ODN 1911 (Operon Qiagen, Valencia, Calif.; having a sequence of […]), or the medium only, for 30 minutes prior to activation with 20 μg/ml of stimulatory ODN 1826 (Operon Qiagen, Valencia, Calif.; having a sequence of […]); 20 μg/ml of endotoxin-free DNA from E. coli K12 (InvivoGen, San Diego, Calif.); killed Staphylococcus aureus strain E2061740 (3×10^5 cfu/ml); 100 ng/ml of Pam3Cys (synthetic lipopeptide (S)-(2,3-bis(palmitoyloxy)-(2RS)-propyl)-N-palmitoyl-(R)-Cys-(S)-Ser-(S)-Lys4-OH, EMC Microcollections, Tubingen, Germany); or 200 ng/ml of LPS (ultra pure lipopolysaccharide from E. coli 0111:B4 strain, InvivoGen, San Diego, Calif.). After 15 hours at 37° C., supernates were collected for ELISA assay (R&D Systems, Minneapolis, Minn.) for pro-inflammatory cytokines macrophage inflammatory protein-2 (“MIP-2”), keratinocyte-derived chemokines (“KC”), IL-6, and TNF-α. […] The production of these pro-inflammatory cytokines was not affected when neutrophils activated by Pam3Cys or LPS were treated with a composition comprising the inhibitory ODN 2088. This not surprising in view of the fact that the inhibitory ODN 2088 inhibits the activation of TLR9 while LPS and Pam3Cys activate TLR4 and TLR2, respectively. Other inhibitors of TLR2 and TLR4 activation should be effective in suppressing corneal infiltrate induced by […], respectively.

C57BL/6 mouse cornea [2] = test: Mouse keratitis: neutrophil infiltrate in abraded cornea; format: in vivo; conditions: topical on abraded cornea, 24 hours, FIG. 5
Method: In this experiment, 1 μl of test solution containing 20 μg/ml of the synthetic stimulatory ODN 1826, 10 μg/ml of endotoxin-free DNA from E. coli K12, 20 μg/ml of Pam3Cys, or 20 μg/ml LPS, along with a composition of the present invention containing the inhibitory ODN 2088, the control composition containing 20 μg/ml of ODN 1911, or medium only, was applied to a 1 mm^2 abraded area of central C57BL/6 mouse cornea that had been marked by sterile trephine (Miltex, Tuttlingen, Germany) and abraded with an Alger brush II (Alger, PagoVista, Texas). After 24 hours, the corneal infiltrate was determined as the number of neutrophils per corneal section. […] Other inhibitors of TLR2 and TLR4 activation should be effective in suppressing corneal infiltrate induced by Pam3Cys and LPS, respectively.

C57BL/6 mouse cornea [3] = test: Corneal epithelium cytokines (ELISA) after stimulatory ODN on abraded mouse cornea; format: in vivo; conditions: stimulatory ODN 1826 20 μg/ml with ODN 2088 20 μg/ml, 5 hours; all three cytokines; FIG. 6
Method: In this experiment, 1 μl of test solution containing 20 μg/ml of the synthetic stimulatory ODN 1826, along with a composition of the present invention containing 20 μg/ml of the inhibitory ODN 2088, or a control composition containing 20 μg/ml of the control ODN 1911, or the medium only, was applied to a 1 mm^2 abraded area of central C57BL/6 mouse cornea that had been marked by sterile trephine (Miltex, Tuttlingen, Germany) and abraded with an Alger brush II (Alger, PagoVista, TX). After 5 hours, the corneal epithelium was separated after 20 minutes in 20 mM EDTA at 37° C. and placed into RPMI 1640 medium. Samples were disrupted by sonication for 88 seconds with 40% duty cycle (Vibracell; Sonics and Material, Danbury, Conn.). Cytokines were measured by ELISA assay (R&D Systems, Minneapolis, Minn.) for the pro-inflammatory cytokines MIP-2, KC, and human interferon-inducible protein 10 (“IP-10”).

TLR9 = target: T1, TLR9 (Homo sapiens, UniProt Q9NR96); conditions: Gursel et al. 2003; Stunz et al. 2002; cited from earlier work
T1 sequence (Q9NR96 26-1032): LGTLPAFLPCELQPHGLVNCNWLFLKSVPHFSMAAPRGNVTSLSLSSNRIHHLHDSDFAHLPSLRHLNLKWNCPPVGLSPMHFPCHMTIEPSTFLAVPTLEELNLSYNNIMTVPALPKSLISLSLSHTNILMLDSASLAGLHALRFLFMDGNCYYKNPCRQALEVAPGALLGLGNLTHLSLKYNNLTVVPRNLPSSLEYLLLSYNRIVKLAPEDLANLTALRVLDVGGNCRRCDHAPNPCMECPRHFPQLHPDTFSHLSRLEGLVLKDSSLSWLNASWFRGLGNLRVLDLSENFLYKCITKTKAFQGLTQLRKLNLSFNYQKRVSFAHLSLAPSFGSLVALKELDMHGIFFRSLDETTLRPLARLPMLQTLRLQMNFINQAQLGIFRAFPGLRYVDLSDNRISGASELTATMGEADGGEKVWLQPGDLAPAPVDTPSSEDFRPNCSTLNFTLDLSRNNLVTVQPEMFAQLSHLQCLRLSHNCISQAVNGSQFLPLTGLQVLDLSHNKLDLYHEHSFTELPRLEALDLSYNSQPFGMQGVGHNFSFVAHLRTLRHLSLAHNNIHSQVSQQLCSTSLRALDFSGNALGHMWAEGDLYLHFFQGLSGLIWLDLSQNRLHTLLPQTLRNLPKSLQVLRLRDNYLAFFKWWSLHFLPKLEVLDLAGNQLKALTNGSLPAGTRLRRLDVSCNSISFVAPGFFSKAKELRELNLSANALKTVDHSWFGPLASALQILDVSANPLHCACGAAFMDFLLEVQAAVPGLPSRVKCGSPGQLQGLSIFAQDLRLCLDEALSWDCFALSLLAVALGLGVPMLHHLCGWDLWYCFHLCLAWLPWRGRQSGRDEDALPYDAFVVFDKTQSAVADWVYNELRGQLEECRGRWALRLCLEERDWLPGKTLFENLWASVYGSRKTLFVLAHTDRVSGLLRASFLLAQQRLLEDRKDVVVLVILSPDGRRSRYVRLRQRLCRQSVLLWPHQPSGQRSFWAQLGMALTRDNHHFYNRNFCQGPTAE

## TCCTGGCGGGGAAGT (chemistry not given here) [ODN 2088]
[1]; activation with 100 ng/ml Pam3Cys
  pro-inflammatory cytokine production by neutrophils (MIP-2, KC, IL-6, TNF-α): not affected
[1]; activation with 200 ng/ml LPS
  pro-inflammatory cytokine production by neutrophils (MIP-2, KC, IL-6, TNF-α): not affected
[1]; activation with 20 μg/ml endotoxin-free DNA from E. coli K12, ODN 2088 0.08-10 μg/ml, dose dependent, FIGS. 1-4
  pro-inflammatory cytokine production by neutrophils (MIP-2, KC, IL-6, TNF-α): inhibited pro-inflammatory cytokine production
[1]; activation with 20 μg/ml stimulatory ODN 1826, ODN 2088 0.08-10 μg/ml, dose dependent, FIGS. 1-4
  pro-inflammatory cytokine production by neutrophils (MIP-2, KC, IL-6, TNF-α): inhibited pro-inflammatory cytokine production
[1]; activation with killed Staphylococcus aureus (3×10^5 cfu/ml)
  pro-inflammatory cytokine production by neutrophils (MIP-2, KC, IL-6, TNF-α): nondetectable levels
C57BL/6 mouse cornea [2]; LPS 20 μg/ml
  corneal infiltrate, number of neutrophils per corneal section: not effective in suppressing corneal infiltrates
C57BL/6 mouse cornea [2]; Pam3Cys 20 μg/ml
  corneal infiltrate, number of neutrophils per corneal section: not effective in suppressing corneal infiltrates
C57BL/6 mouse cornea [2]; bacterial DNA (E. coli K12) 10 μg/ml
  corneal infiltrate, number of neutrophils per corneal section: reduced the number of infiltrating neutrophils
C57BL/6 mouse cornea [2]; stimulatory ODN 1826 20 μg/ml
  corneal infiltrate, number of neutrophils per corneal section: reduced the number of infiltrating neutrophils
C57BL/6 mouse cornea [3]
  corneal cytokine response (MIP-2, KC, IP-10): reduced cytokine response
TLR9
  colocalization of CpG DNA with TLR9 within endosomal vesicles: block the colocalization
